Values of other authors in patent US20160058814A1, “PLANT EXTRACTS AND RELATED COMPOSITIONS, METHODS AND SYSTEMS” (priority 2014, published 2016).

Conditions: in vivo

For O=c1ccc2ccccc2o1 [Coumarin, coumarin], the LD50 is listed as 275 mg/kg.
